Data published in patent publication US20090054507A1, “CONTROL OF MALIGNANT CELLS BY KINASE INHIBITION” (CLEVELAND STATE UNIVERSITY, priority 2006, published 2009).
Entries after “also recorded” stand apart in the source; their conditions may differ.

What was measured:
MCF-7 cells = test: Proliferation assay in vitro, MCF-7; format: cell-based, human; settings: five days
Description: (§1) Viability (proliferation) assay, Trypan blue exclusion. Cells were counted using a Neubauer hemacytometer.

SW-480 xenografts = test: In vivo therapy of SW-480 xenografts, tumor volume; parameters: species or system mice
Description: Creation of the xenografts MCF-7, SW-480 and WM-164. Immunodeficient male and female athymic nude nu/nu mice were used, provided and housed by Dr. Lindner, DJ from Taussig Cancer Center, Cleveland Clinic and Case Western Reserve University. Mice were checked every day. Mice were housed in filtered air flow cabinets with autoclaved bedding at a density of 5 mice/cage. They were fed autoclaved Purina Lab Rodent Chow® 5010 and HCl-acidified distilled water ad libitum and were placed in rooms with controlled temperature, humidity and 12-hr light-dark cycles. Procedures involving animals and their care were conducted in conformity with the institutional guidelines that are in compliance with national and international laws and policies (EEC Council Directive 86/609, OJL 358, Dec. 1, 1987, and the National Institutes of Health Guide for the Care and Use of Laboratory, Animals, NIH Publication 85-23, 1985).
For engraftment, cells in cell culture media were injected. […] Cells were counted with a hemacytometer using Trypan blue (only live cells were counted). […]
In vivo therapy with DMAT of SW-480 xenografts. […] Tumor diameters were measured using a caliper and tumor volume was calculated using the prolate-spheroid formula. […]

MEG-01 xenografts = test: Blood counts in MEG-01 xenograft mice; format: in vivo
Procedure: At the end of the trial, tail-bleeding times assay was performed and blood was collected for blood counts from live and anesthetized mice. After these experiments were completed mice were sacrificed and tumors and organs were collected. Samples were fixed in formalin for further processing.
Mice blood collection and blood counts. Blood counts are dependent upon the method and time of blood collection. Whole blood was collected from the retro-orbital sinus (under the eye) of anesthesiated mice (both DMSO treated and DMAT treated batch). EDTA and prostaglandin E1 (PGE1) were used at collection to prevent clotting during blood collection. 500 μl mice whole blood with 100 μl anticoagulant were used for counting (a 1:5 dilution). A hematological analyzer was used for this. Samples were compared (gated) with normal mice (C57BL strain).

SW-480 cells [1] = test: Anchorage independence in soft agar, SW-480; format: cell-based, human; settings: DMAT 10 μM, one week
tumors of ACHN cells = test: Murine xenograft of ACHN cells, tumor volume; format: in vivo, mice; settings: DMAT at effective dosage levels (in DMSO) per animal per day, 59 days
Procedure: FIG. 94 illustrates the effect of administration of DMAT as compared to a control over a period of 59 days. FIG. 94 is a graph of a murine xenograft treated with DMAT, compared to a control. Mice with tumors of ACHN cells were treated with DMAT at effective dosage levels (in DMSO) per animal per day. The daily animal weight was averaged at 32.5 g at the start of treatment. Tumors were measured daily and tumor volumes were calculated based upon a prolate spheroid model. FIG. 94 illustrates the significant benefits of treatment with DMAT (circles) as compared to the control (squares). […] The differences in tumor volume between control cells and those treated with DMAT, as described herein, are striking.

MEG-01 tumors = test: Hematoxylin & eosin staining of MEG-01 tumors; format: in vivo, mice; parameters: dose or concentration left out as unconfirmed; settings: DMAT treated vs control
Procedure: Hematoxylin & eosin staining of tumor tissue and organs. After euthanasia with CO2, mice were supposed to necropsy. Tumors were collected from under the skin from both flanks and were measured for the last time and then fixed in formalin fixative. Spleen, liver, kidney, brain, lungs and legs were collected and fixed. Spleens were also measured (as length, […]). Fresh tissue was immersed immediately into liquid nitrogen and kept frozen at −80° C. Fixed tissue was embedded in paraffin and next processed for H&E (the basic dye hematoxylin, and the alcohol-based synthetic material, eosin) by the Cleveland Clinic Histology Core facility. Sections (4-μm thick) were stained with hematoxylin and eosin and evaluated for pathologic changes in a blinded fashion. H&E staining gives morphological information (vascularization, normal proliferating tissue, necrosis and apoptosis of the tissue).

SW-480 cells [2] = test: Proliferation assay in vitro, SW-480; format: cell-based, human; settings: four days
Description: as §1

For CN(C)c1nc2c(Br)c(Br)c(Br)c(Br)c2[nH]1 [DMAT, 2-dimethylamino-4,5,6,7-tetrabromo-1H-benzimidazole], the cell counts (MCF-7 cells; 10 μM DMAT) was “cell counts between the control and the MCF-7 cells treated with 20 μM”, the “cell counts / proliferation” value (MCF-7 cells; 20 μM DMAT) was “lowest cell counts; also recorded: proliferation arrest” and the tumor volume (SW-480 xenografts; DMAT 40 mg/kg (in DMSO) per day, thirteen days, control about 260 to about 1800 mm^3) was “only a minor increase in tumor volume”. For the same compound, the “response of xenograft tumors to treatment (summary)” value (SW-480 xenografts; small tumors remained at the end of the treatment) was “significant reduction in tumor volume”, the platelet counts (MEG-01 xenografts; DMAT 50 μl/day of 125 mg, compared to a control) was “increase in platelet counts” and the “percentage of abnormal cells in blood counts” value (MEG-01 xenografts; DMAT treated vs DMSO control) was “the control has higher percentages of abnormal cells”. For the same compound, the “colonies in soft agar” value (SW-480 cells [1]) was “much smaller and fewer colonies”, the tumor volume (tumors of ACHN cells) was “proliferation arrest in vivo for large tumors and tumor ablation in small tumors” and the “apoptotic-necrotic areas in tumors (hematoxylin and eosin)” value (MEG-01 tumors) was “significantly greater areas of apoptosis and necrosis”. For the same compound, the cell counts (SW-480 cells [2]; 10 μM DMAT) was “cell counts between the control and the SW-480 cells treated with 20 μM” and the “cell counts / proliferation” value (SW-480 cells [2]; 20 μM DMAT) was “lowest cell counts; also recorded: proliferation arrest”.
